One test addresses Porcine DAAO (Sus scrofa (Pig), UniProt P00371). Briefly: In vitro D-amino acid oxidase (DAAO) assay, porcine enzyme. The settings on record: values marked *: Porcine DAAO was used to measure inhibitory potency; read-out: Inhibition of DAAO IC50. Type of test: biochemical. Here is the method: (§1) A reliable 96-well plate D-amino acid oxidase (DAAO) assay was developed based on previously published reports (J. Biol. Chem. 277: 27782 (2002)). […] All reactions were carried out for 20 min at room temperature in a 100-μL volume in Tris buffer (50 mM, pH 8.5). Additionally, stock solutions and serial dilutions of potential DAO inhibitors were made in 10:90 DMSO:buffer with a final assay DMSO concentration of 1%.
Sequence of human recombinant D-amino acid oxidase (P14920 whole entry): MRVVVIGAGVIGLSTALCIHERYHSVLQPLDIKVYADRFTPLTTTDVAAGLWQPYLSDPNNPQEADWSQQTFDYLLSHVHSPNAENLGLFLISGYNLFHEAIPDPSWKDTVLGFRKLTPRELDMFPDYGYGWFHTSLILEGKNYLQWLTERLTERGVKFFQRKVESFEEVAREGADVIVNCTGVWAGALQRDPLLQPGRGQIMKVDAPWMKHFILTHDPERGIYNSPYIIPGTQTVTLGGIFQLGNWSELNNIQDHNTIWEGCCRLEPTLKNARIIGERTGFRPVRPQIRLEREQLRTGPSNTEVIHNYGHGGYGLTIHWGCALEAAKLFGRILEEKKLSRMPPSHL
Sequence of Porcine DAAO (P00371 whole entry): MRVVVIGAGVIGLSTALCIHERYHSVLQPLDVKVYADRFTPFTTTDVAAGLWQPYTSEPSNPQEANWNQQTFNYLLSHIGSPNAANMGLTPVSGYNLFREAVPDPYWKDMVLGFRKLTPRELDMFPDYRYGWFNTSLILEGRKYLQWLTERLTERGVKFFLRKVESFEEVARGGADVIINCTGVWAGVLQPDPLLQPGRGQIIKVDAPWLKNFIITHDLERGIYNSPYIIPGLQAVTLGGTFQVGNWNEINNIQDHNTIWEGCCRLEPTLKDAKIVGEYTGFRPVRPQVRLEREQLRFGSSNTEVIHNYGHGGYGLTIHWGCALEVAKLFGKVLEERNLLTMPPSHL
With `CCOc1ccc(CCn2nc(O)c(=O)[nH]c2=O)cc1` [Compound 10t, 2-(4-Ethoxyphenethyl)-6-hydroxy-1,2,4-triazine-3,5(2H,4H)-dione], the concentration for half-maximal inhibition (IC50) amounted to 300 nM.
The same measure, in the same setting: next, `O=c1[nH]c(=O)n(CCc2ccc(N3CCOCC3)cc2)nc1O` [Compound 32, 6-Hydroxy-2-(4-morpholinophenethyl)-1,2,4-triazine-3,5(2H,4H)-dione]: 1000 nM; `Cc1ccc2ccccc2c1Cn1nc(O)c(=O)[nH]c1=O` [Compound 10u, 6-Hydroxy-2-((2-methylnaphthalen-1-yl)methyl)-1,2,4-triazine-3,5(2H,4H)-dione]: 600 nM.

The next test concerns the target human recombinant D-amino acid oxidase (Homo sapiens (Human), UniProt P14920). The experiment in a line: In vitro D-amino acid oxidase (DAAO) assay, 96-well plate. In kind it is biochemical. The settings on record: human recombinant DAAO; D-serine 5 mM, FAD 1 μM, 20 min, room temperature, Tris buffer pH 8.5; read-out: Inhibition of DAAO IC50. The protocol: as §1
With `CC(C)N1CCN(CCn2nc(O)c(=O)[nH]c2=O)CC1` [Compound 12b, 6-Hydroxy-2-(2-(4-isopropylpiperazin-1-yl)ethyl)-1,2,4-triazine-3,5(2H,4H)-dione], the IC50 was determined as 9000 nM.
On the same count and under the same terms, in the case of `O=c1[nH]c(=O)n(CCN2CCOCC2)nc1O` [Compound 10j, 6-Hydroxy-2-(2-morpholinoethyl)-1,2,4-triazine-3,5(2H,4H)-dione] it was 1000 nM; in that of `O=c1[nH]c(=O)n(Cc2cccc3cc(Br)ccc23)nc1O` [Compound 25d, 2-((6-Bromonaphthalen-1-yl)methyl)-6-hydroxy-1,2,4-triazine-3,5(2H,4H)-dione], 50 nM.
On the same count and under the same terms, next, `O=c1[nH]c(=O)n(CCn2cccn2)nc1O` [Compound 10d, 2-(2-(1H-pyrazol-1-yl)ethyl)-6-hydroxy-1,2,4-triazine-3,5(2H,4H)-dione]: 300 nM; `COc1cccc(CCn2nc(O)c(=O)[nH]c2=O)c1` [Compound 5w, 6-Hydroxy-2-(3-methoxyphenethyl)-1,2,4-triazine-3,5(2H,4H)-dione]: 100 nM; `Cc1ccc(Cn2nc(O)c(=O)[nH]c2=O)c2ccccc12` [Compound 25c, 6-Hydroxy-2-((4-methylnaphthalen-1-yl)methyl)-1,2,4-triazine-3,5(2H,4H)-dione]: 1000 nM.
On the same count and under the same terms, in the case of `O=c1[nH]c(=O)n(CCn2cccc2)nc1O` [Compound 10c, 2-(2-(1H-pyrrol-1-yl)ethyl)-6-hydroxy-1,2,4-triazine-3,5(2H,4H)-dione] it was 100 nM.
On to `CC(C)(C)CCn1nc(O)c(=O)[nH]c1=O` [Compound 5r, 2-(3,3-Dimethylbutyl)-6-hydroxy-1,2,4-triazine-3,5(2H,4H)-dione], for which the IC50 is 40000 nM.
Take `O=c1[nH]c(=O)n(CCc2cccc(O)c2)nc1O` [Compound 5wp, 6-Hydroxy-2-(3-hydroxyphenethyl)-1,2,4-triazine-3,5(2H,4H)-dione]: the 50% inhibitory concentration (IC50) was 100 nM.
The same measure, in the same setting: next, `O=c1[nH]c(=O)n(CCc2ccc(-c3ccccc3)cc2)nc1O` [Compound 5o, 2-(2-(Biphenyl-4-yl)ethyl)-6-hydroxy-1,2,4-triazine-3,5(2H,4H)-dione]: 30 nM; `O=c1[nH]c(=O)n(CCN2CCc3ccccc3C2)nc1O` [Compound 12d, 2-(2-(3,4-Dihydroisoquinolin-2(1H)-yl)ethyl)-6-hydroxy-1,2,4-triazine-3,5(2H,4H)-dione]: 700 nM; `O=c1[nH]c(=O)n(CCc2ccc(F)cc2)nc1O` [Compound 5b, 2-(4-Fluorophenethyl)-6-hydroxy-1,2,4-triazine-3,5(2H,4H)-dione]: 60 nM.
Still for that read-out and setting: in the case of `O=c1[nH]c(=O)n(CCc2cc(F)cc(F)c2)nc1O` [Compound 10r, 2-(3,5-Difluorophenethyl)-6-hydroxy-1,2,4-triazine-3,5(2H,4H)-dione] it was 200 nM; in that of `O=c1[nH]c(=O)n(CC(F)(F)c2ccccc2)nc1O` [Compound 10a, 2-(2,2-Difluoro-2-phenylethyl)-6-hydroxy-1,2,4-triazine-3,5(2H,4H)-dione], 400 nM; in that of `CC(C)CCn1nc(O)c(=O)[nH]c1=O` [Compound 5q, 6-Hydroxy-2-isopentyl-1,2,4-triazine-3,5(2H,4H)-dione], 300 nM.
Turning to `O=c1[nH]c(=O)n(CCc2ccc(Cl)cc2Cl)nc1O` [Compound 5m, 2-(2,4-Dichlorophenethyl)-6-hydroxy-1,2,4-triazine-3,5(2H,4H)-dione], the 50% inhibitory concentration (IC50) stood at 80 nM.
The same measure, in the same setting: next, `O=c1[nH]c(=O)n(Cc2cccc3cccnc23)nc1O` [Compound 25a, 6-Hydroxy-2-(quinolin-8-ylmethyl)-1,2,4-triazine-3,5(2H,4H)-dione]: 3000 nM; `CN(C)CCn1nc(O)c(=O)[nH]c1=O` [Compound 12a, 2-(2-(Dimethylamino)ethyl)-6-hydroxy-1,2,4-triazine-3,5(2H,4H)-dione]: 5000 nM.

Still in this test, the particulars now being: read-out: Inhibition of DAAO IC50.
Consider `COc1ccc(CCn2nc(O)c(=O)[nH]c2=O)cc1` [Compound 5x, 6-Hydroxy-2-(4-methoxyphenethyl)-1,2,4-triazine-3,5(2H,4H)-dione], for which the half-inhibitory concentration (IC50) was determined as 100 nM.

The values above are taken from US9505753B2, “Inhibitors of D-amino acid oxidase” (THE JOHNS HOPKINS UNIVERSITY, priority 2012, dated 2016).
